Measured values as given in patent US20120059052A1, “PRENYLFLAVONOID FORMULATIONS” (BIOACTIVES, INC., priority 2005, published 2012).

Tests used:
HepG2 cells = assay: Incorporation of 14C-acetic acid into cholesterol in HepG2 cells; type: cell-based
Experimental: The incorporation of ^14C-acetic acid into cholesterol was examined in HepG2 cells. […] The IC50 was approximately 20 μM. In the same HepG2 cell assay system, atorvastatin (10 nM and 1 μM) inhibited acetate incorporation into cholesterol by 20% and 80% respectively.

[1] = oral doses, animal; cited from earlier work
Caco-2 cell monolayers = assay: Permeability across Caco-2 cell monolayers; type: in vitro ADME
Experimental: Percent Recovery=100×((Vr×Cr^final)+(Vd×Cd^final))/(Vd×C0)
• dCr/dt is the slope of the cumulative concentration in the receiver compartment versus time in μMs^−1. • Vr is the volume of the receiver compartment in cm^3. • Vd is the volume of the donor compartment in cm^3. • A is the area of the cell-free insert (1.13 cm^2 for 12-well Transwell). • Cr^final is the cumulative receiver concentration in μM at the end of the incubation period. • Cd^final is the concentration of the donor in μM at the end of the incubation period. • C0 is the initial concentration of the dosing solution in μM.
Each determination was performed in duplicate.

[2] = cited from earlier work
Cyp1A2 = molecular target: T1, Cyp1A2 (Homo sapiens, UniProt P05177); conditions: cDNA-expressed human enzyme; cited from earlier work
T1 sequence (P05177 1-516): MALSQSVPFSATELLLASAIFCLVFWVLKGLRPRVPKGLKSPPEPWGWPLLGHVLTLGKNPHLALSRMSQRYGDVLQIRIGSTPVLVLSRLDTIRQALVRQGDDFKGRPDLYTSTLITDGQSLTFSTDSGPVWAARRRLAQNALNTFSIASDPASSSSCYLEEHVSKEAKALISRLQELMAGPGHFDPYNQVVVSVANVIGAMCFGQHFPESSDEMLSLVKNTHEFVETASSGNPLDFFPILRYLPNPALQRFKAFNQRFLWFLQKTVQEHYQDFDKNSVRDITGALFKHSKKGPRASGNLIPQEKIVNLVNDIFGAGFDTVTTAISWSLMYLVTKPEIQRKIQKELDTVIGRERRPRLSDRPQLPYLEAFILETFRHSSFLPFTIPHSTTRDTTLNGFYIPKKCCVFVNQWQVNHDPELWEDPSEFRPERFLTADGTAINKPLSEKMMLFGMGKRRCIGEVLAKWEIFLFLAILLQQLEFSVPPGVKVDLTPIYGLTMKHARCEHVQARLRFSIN

HMG-CoA reductase = molecular target: T2, HMG-CoA reductase (Homo sapiens, UniProt P04035); assay: HMG-CoA reductase assay in isolated liver microsomes; type: biochemical; conditions: 1 μM to 100 μM, isolated liver microsomes
T2 construct: from tissue; host or cells: liver microsomes
T2 sequence (P04035 1-888): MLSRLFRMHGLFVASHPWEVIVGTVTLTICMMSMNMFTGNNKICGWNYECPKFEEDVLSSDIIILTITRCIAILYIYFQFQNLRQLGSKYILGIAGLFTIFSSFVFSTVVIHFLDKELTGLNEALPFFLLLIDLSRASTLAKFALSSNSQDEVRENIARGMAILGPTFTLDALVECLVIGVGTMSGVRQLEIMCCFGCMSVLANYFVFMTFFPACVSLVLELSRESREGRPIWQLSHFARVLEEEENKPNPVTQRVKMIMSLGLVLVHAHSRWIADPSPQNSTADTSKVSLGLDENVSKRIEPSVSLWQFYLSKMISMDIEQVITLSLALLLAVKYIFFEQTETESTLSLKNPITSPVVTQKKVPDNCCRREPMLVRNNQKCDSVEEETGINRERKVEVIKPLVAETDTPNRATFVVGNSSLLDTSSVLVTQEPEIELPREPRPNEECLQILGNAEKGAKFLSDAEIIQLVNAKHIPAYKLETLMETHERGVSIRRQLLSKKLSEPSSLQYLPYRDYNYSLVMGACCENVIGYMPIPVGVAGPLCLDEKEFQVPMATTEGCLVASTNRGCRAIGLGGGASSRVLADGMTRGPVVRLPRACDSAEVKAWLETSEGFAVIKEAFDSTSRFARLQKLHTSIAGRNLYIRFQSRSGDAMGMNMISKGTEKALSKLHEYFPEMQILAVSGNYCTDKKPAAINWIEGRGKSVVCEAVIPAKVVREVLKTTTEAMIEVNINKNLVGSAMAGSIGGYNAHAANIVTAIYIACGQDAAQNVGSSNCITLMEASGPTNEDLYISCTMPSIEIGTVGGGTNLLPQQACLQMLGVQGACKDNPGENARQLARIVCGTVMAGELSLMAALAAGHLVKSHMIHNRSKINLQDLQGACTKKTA
Experimental: HMG-CoA reductase assays were performed in which increasing concentrations of xanthohumol (1 μM to 100 μM) were added to isolated liver microsomes. Xanthohumol had no effect on HMG-CoA reductase activity. As a positive control, atorvastatin (10 nM and 1 μM) was tested in the same assay, which inhibited reductase activity by 58% and 87% respectively. The protocol followed was as published in Telford et al. ATVB 2002; 22: 1884-1891.

constitutive COX-1 = molecular target: T3, constitutive COX-1 (Ovis aries, UniProt P05979); conditions: read-out: IC50, inhibition of COX-1; cited from earlier work
T3 sequence (P05979 25-600): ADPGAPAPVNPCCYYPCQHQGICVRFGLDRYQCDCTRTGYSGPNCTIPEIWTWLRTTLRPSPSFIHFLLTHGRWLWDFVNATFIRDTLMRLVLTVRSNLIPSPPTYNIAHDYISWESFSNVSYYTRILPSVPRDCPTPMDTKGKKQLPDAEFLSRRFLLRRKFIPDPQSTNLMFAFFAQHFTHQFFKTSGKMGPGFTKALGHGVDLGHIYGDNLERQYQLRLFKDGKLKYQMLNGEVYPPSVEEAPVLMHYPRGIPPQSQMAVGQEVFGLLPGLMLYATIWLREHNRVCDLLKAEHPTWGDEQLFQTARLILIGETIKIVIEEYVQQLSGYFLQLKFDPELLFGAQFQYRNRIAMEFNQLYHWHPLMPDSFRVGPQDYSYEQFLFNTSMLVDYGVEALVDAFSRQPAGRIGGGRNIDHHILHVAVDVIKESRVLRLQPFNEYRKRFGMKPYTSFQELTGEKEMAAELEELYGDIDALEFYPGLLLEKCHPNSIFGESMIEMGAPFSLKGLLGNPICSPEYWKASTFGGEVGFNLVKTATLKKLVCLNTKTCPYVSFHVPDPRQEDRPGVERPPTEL

[3] = human, Caco-2, 120 min, 2 μM, pH 7.4

Compound: COc1cc(O)c(CC=C(C)C)c(O)c1C(=O)/C=C/c1ccc(O)cc1 [Xanthohumol, xanthohumol]
- Cholesterol synthesis inhibition (HepG2 cells; 0.5 μM to 100 μM): inhibited in a dose-responsive manner
- IC50 (HepG2 cells; Homo sapiens, read-out: IC50, cholesterol synthesis): ~20 µM
- Effect on incorporation of 14C-acetic acid into cholesterol (HepG2 cells; concentrations below 500 nM): No affect
- Bioavailability [1]: very low bioavailability
- Significant Efflux (Caco-2 cell monolayers; Caco-2): No
- Papp, Average (Caco-2 cell monolayers; [3]): 1.77 10^−6 cm/s
- Papp, Rep. 1 (Caco-2 cell monolayers; [3]): 0.94 10^−6 cm/s
- Solubility in water [2]: virtually insoluble
- Inhibition of Cyp1A2 (Cyp1A2): strongly inhibit
- Effect on HMG-CoA reductase activity (HMG-CoA reductase): no effect
- IC50 (constitutive COX-1): 17 µM
